Reference: patent US20230172206A1 (BASF SE, priority 2020, published 2023)

Columns and labels:
[1] = tested on: Alternaria solani (F129L); test: Micro titer plate test against early blight (ALTESO F129L); type: cell-based; details: 4 ppm, 7 days after inoculation, relative to compound-free control (100%)
[2] = tested on: Phakopsora pachyrhizi (wt); test: Protective control of soybean rust on detached soybean leaves (PHAKPA P1 DL), Qo inhibitor-sensitive wt isolate; type: in vivo
[3] = tested on: Phakopsora pachyrhizi (F129L); test: Protective control of soybean rust on soybeans (PHAKPA P6); type: in vivo; details: for % PHAKPA (F129L) Disease level P6 at 4 ppm: protective P6, 4 ppm; for % PHAKPA (F129L) Disease level P6 at 16 ppm: protective P6, 16 ppm
[4] = tested on: Phakopsora pachyrhizi (F129L); test: Protective control of soybean rust on soybeans (PHAKPA P2); type: in vivo; details: for % PHAKPA (F129L) Disease level P2 at 4 ppm: protective P2, 4 ppm; for % PHAKPA (F129L) Disease level P2 at 16 ppm: protective P2, 16 ppm

| Compound | % PHAKPA (F129L) Disease level P6 at 4 ppm ([3]; soybean rust F129L isolate) | % PHAKPA (F129L) Disease level P6 at 16 ppm ([3]; soybean rust F129L isolate) | % PHAKPA (F129L) Disease level P2 at 4 ppm ([4]; soybean rust F129L isolate) | % PHAKPA (F129L) Disease level P2 at 16 ppm ([4]; soybean rust F129L isolate) | other results |
| --- | --- | --- | --- | --- | --- |
| CO/N=C(/C(=O)OC)c1cccc(C)c1CO/N=C(\C)c1cccc(OC(F)(F)F)c1 [drawing 940] |  |  |  |  | Fungal growth (%) ALTESO F129L [1]: 87% |
| Cc1cccc(-n2nnn(C)c2=O)c1COc1ccn(-c2ccc(Cl)cc2)n1 [drawing 932, reference compound] |  |  |  |  | PHAKPA P1 DL Disease level (%) Qo I-sensitive wt isolate (0 % F129L) ([2]; test concentration 0.3 ppm): 78%; PHAKPA P1 DL Disease level (%) Qo I-sensitive wt isolate (0 % F129L) ([2]; test concentration 1 ppm): 80%; PHAKPA P1 DL Disease level (%) Qo I-sensitive wt isolate (0 % F129L) ([2]; test concentration 3 ppm): 77%; PHAKPA P1 DL Disease level (%) Qo I-sensitive wt isolate (0 % F129L) ([2]; test concentration 10 ppm): 48%; PHAKPA P1 DL Disease level (%) Qo I-sensitive wt isolate (0 % F129L) ([2]; test concentration 30 ppm): 30%; PHAKPA P1 DL Disease level (%) Qo I-sensitive wt isolate (0 % F129L) ([2]; test concentration 100 ppm): 18%; PHAKPA P1 DL Disease level (%) Qo I-sensitive wt isolate (0 % F129L) ([2]; test concentration 300 ppm): 5% |
| CNC(=O)/C(=N/OC)c1cccc(C)c1CO/N=C(/c1ccccc1)C(C)C [compound 389] |  |  |  |  | % PHAKPA (F129L) Disease level P6 at 4 ppm ([3]; F129L isolate): 43%; % PHAKPA (F129L) Disease level P6 at 16 ppm ([3]; F129L isolate): 3%; % PHAKPA (F129L) Disease level P2 at 4 ppm ([4]; F129L isolate): 28%; % PHAKPA (F129L) Disease level P2 at 16 ppm ([4]; F129L isolate): 4% |
| CNC(=O)/C(=N/OC)c1cccc(C)c1CO/N=C(\C)c1ccc(F)cc1C(F)(F)F [compound 260] | 22% | 0% | 22% | 0% |  |
| CNC(=O)/C(=C/OC)c1cccc(C)c1CO/N=C(\C)c1cccc(C(F)(F)F)c1 [compound 232] | 100% | 83% | 100% | 73% |  |
| CO/C=C(/C(=O)OC)c1cccc(C)c1CO/N=C(\C)c1ccccc1C(F)(F)F [compound 244] | 15% | 2% | 14% | 0% | PHAKPA (F129L) Disease level (%) P6 at 16 ppm ([3]; protective, inoculation six days after spraying, 16 ppm, % diseased leaf area): 2%; PHAKPA (F129L) Disease level (%) P2 at 16 ppm ([4]; protective, inoculation 2 days after spraying, 16 ppm, % diseased leaf area): 0% |
| CNC(=O)/C(=N/OC)c1cccc(C)c1CO/N=C(\C)c1ccc(C)cc1OC(F)(F)F [compound 340] | 42% | 7% | 23% | 4% |  |
| C#Cc1cccc(/C(C)=N/OCc2c(C)cccc2/C(=N\OC)C(=O)NC)c1F [compound 401] |  |  |  |  | % PHAKPA (F129L) Disease level P6 at 4 ppm ([3]; F129L isolate): 32%; % PHAKPA (F129L) Disease level P6 at 16 ppm ([3]; F129L isolate): 4%; % PHAKPA (F129L) Disease level P2 at 4 ppm ([4]; F129L isolate): 17%; % PHAKPA (F129L) Disease level P2 at 16 ppm ([4]; F129L isolate): 5% |
| CNC(=O)/C(=N/OC)c1cccc(C)c1CO/N=C(\C)c1c(F)cc(F)cc1C(F)(F)F [compound 357] | 18% | 0% | 13% | 1% |  |
| CNC(=O)/C(=N/OC)c1cccc(C)c1CO/N=C(\C)c1c(F)cc(F)cc1OC(F)(F)F [compound 344] | 16% | 0% | 6% | 0% |  |
| CO/N=C(/C(=O)OC)c1cccc(C)c1CO/N=C(\CC(F)(F)F)c1cccc(C(F)(F)F)c1 [compound 250] | 90% | 80% | 90% | 90% |  |
| CNC(=O)/C(=N/OC)c1cccc(C)c1CO/N=C(\C)c1cc(Cl)c(F)c(Cl)c1 [compound 247] | 33% | 8% | 16% | 2% |  |
| CNC(=O)/C(=N/OC)c1cccc(C)c1CO/N=C(\C)c1cc(F)ccc1Br [compound 248] | 30% | 2% | 33% | 2% |  |
| CNC(=O)/C(=N/OC)c1cccc(C)c1CO/N=C(\C)c1c(Cl)ccc(Cl)c1OC(F)(F)F [compound 441] |  |  |  |  | % PHAKPA (F129L) Disease level P6 at 4 ppm ([3]; F129L isolate): 97%; % PHAKPA (F129L) Disease level P6 at 16 ppm ([3]; F129L isolate): 50%; % PHAKPA (F129L) Disease level P2 at 4 ppm ([4]; F129L isolate): 100%; % PHAKPA (F129L) Disease level P2 at 16 ppm ([4]; F129L isolate): 43% |
| CO/N=C(/C)c1ccc(/C(C)=N/OCc2c(C)cccc2/C(=N\OC)C(=O)OC)c(C(F)(F)F)c1 [compound 417] |  |  |  |  | % PHAKPA (F129L) Disease level P6 at 4 ppm ([3]; F129L isolate): 63%; % PHAKPA (F129L) Disease level P6 at 16 ppm ([3]; F129L isolate): 22%; % PHAKPA (F129L) Disease level P2 at 4 ppm ([4]; F129L isolate): 35%; % PHAKPA (F129L) Disease level P2 at 16 ppm ([4]; F129L isolate): 18% |
| CNC(=O)/C(=N/OC)c1cccc(C)c1CO/N=C(\C)c1c(Cl)cccc1C(F)(F)F [compound 290] | 83% | 21% | 92% | 14% |  |
| CCC/C(=N\OCc1c(C)cccc1/C(=N\OC)C(=O)OC)c1ccccc1 [compound 387] |  |  |  |  | % PHAKPA (F129L) Disease level P6 at 4 ppm ([3]; F129L isolate): 80%; % PHAKPA (F129L) Disease level P6 at 16 ppm ([3]; F129L isolate): 47%; % PHAKPA (F129L) Disease level P2 at 4 ppm ([4]; F129L isolate): 60%; % PHAKPA (F129L) Disease level P2 at 16 ppm ([4]; F129L isolate): 30% |
